# Data: patent US8993574B2, “Pyrrole antifungal agents” (F2G Ltd, priority 2008, dated 2015)
# How the values were obtained:
# Assay type in all cases: cell-based
# Aspergillus flavus [1] = assay: MIC, YAG medium; conditions: 24 h at 35° C, MIC banded into grades; for MIC: Aspergillus flavus, 24 h, read-out: MIC grade, A. flavus
# Method: (§1) Between 1 and 5 mgs of compound were accurately weighed out into a sterile Eppendorf tube. The compound was dissolved in DMSO to give a solution containing 5 mg/mL. Tubes were stored at −20° C. until required.
# (§2) On the day of testing thawed solutions were vortex mixed to ensure homogeneity. 30 μL of solution was removed and added to 570 μL of sterile water in a separate sterile Eppendorf. The thoroughly mixed solution was used to prepare a series of doubling dilutions in water, in a deep well plate. Thirteen replicate plates were prepared using a Minitrak by aspirating 20 μL from each well into eleven clear polystyrene 96 well plates.
# (§3) Spores of Aspergillus spp. (Aspergillus fumigatus [two strains], Aspergillus terreus [two strains], Aspergillus niger and Aspergillus flavus) were harvested from cultures grown on Sabarauds agar for 5 days, and resuspended in PBS/Tween 80 to approx 1×10^7 cfu/mL. Each organism suspension was diluted in YAG medium (1% glucose, 1% ammonium chloride and 0.5% yeast extract) to 0.5−2×10^4 cfu/mL. 80 μL of an organism suspension was added to each well of the plate containing drug dilutions.
# (§4) This produced MIC plates with a drug range 50-0.05 mg/L and organism inocula of 1−2×10^4 cfu/mL for Aspergillus spp. All plates were incubated for 24 h at 35° C. Growth was assessed by monitoring the optical density at 485 nm for each well. The MIC of a compound is the lowest drug concentration that inhibits growth of an organism by >70% compared with a drug free control. MICs are recorded as mg/L. In cases where the MIC of an organism is […] mg/L the MIC is repeated using a concentration range of 0.5-0.0005 mg/L.
# (§5) The following organisms were tested: Aspergillus flavus, Aspergillus fumigatus AF293 and AF210, Aspergillus niger, Aspergillus terreus AT4 and AT49, Candida albicans, Candida glabrata, Candida krusei, Candida parapsilosis and Candida tropicalis.
# [2] = system: Aspergillus fumigatus AF210; assay: MIC, YAG medium; conditions: 24 h at 35° C, MIC banded into grades; for MIC: Aspergillus fumigatus, read-out: MIC grade, A. fumigatus 210
# Method: as §1, §2, §3, §4, §5
# [3] = system: Aspergillus fumigatus AF293; assay: MIC, YAG medium; conditions: 24 h at 35° C, MIC banded into grades; for MIC: Aspergillus fumigatus, read-out: MIC grade, A. fumigatus
# Method: as §1, §2, §3, §4, §5
# Aspergillus niger [4] = assay: MIC, YAG medium; conditions: 24 h at 35° C, MIC banded into grades; for MIC: Aspergillus niger, read-out: MIC grade, A. niger
# Method: as §1, §2, §3, §4, §5
# Aspergillus terreus AT49 [5] = assay: MIC, YAG medium; conditions: 24 h at 35° C, MIC banded into grades; for MIC: Aspergillus terreus, read-out: MIC grade, A. terreus 49
# Method: as §1, §2, §3, §4, §5
# Aspergillus terreus AT4 [6] = assay: MIC, YAG medium; conditions: 24 h at 35° C, MIC banded into grades; for MIC: Aspergillus terreus, read-out: MIC grade, A. terreus
# Method: as §1, §2, §3, §4, §5
# Aspergillus flavus [7] = assay: MIC, RPMI medium; conditions: MIC banded into grades; for MIC: Aspergillus flavus, read-out: MIC grade, A. flavus
# Method: as §1, §2
# (§6) Assays were also performed in RPMI medium for both Aspergillus spp. (strains described above) and Candida spp. (Candida albicans, Candida glabrata, Candida krusei, Candida parapsilosis and Candida tropicalis). To perform MIC tests in this medium, dilutions of compounds are prepared in microtitre plates as described above. Fungal strains to be tested are grown and harvested in an identical manner to that described above, and each organism suspension was diluted in RPMI medium, containing 2% glucose and 0.135 M MOPS buffer (pH 7.0) to 0.5-2×10^4 cfu/mL, rather than in YAG medium. 80 μL of an organism suspension was added to each well of the plate containing drug dilutions.
# (§7) This produced MIC plates with a drug range 50-0.05 mg/L and organism inocula of 1−2×10^4 cfu/mL. All plates were incubated for 24-48 h at 35° C. Growth was assessed by monitoring the optical density at 485 nm for each well. The MIC of a compound is the lowest drug concentration that inhibits growth of an organism by >80% compared with a drug free control.
# as §5
# [8] = system: Aspergillus fumigatus AF210; assay: MIC, RPMI medium; conditions: for MIC: Aspergillus fumigatus, AF210, MIC banded into grades, read-out: MIC grade, A. fumigatus 210
# Method: as §1, §2, §6, §7, §5
# [9] = system: Aspergillus fumigatus AF293; assay: MIC, RPMI medium; conditions: for MIC: Aspergillus fumigatus, AF293, MIC banded into grades, read-out: MIC grade, A. fumigatus
# Method: as §1, §2, §6, §7, §5
# Aspergillus niger [10] = assay: MIC, RPMI medium; conditions: MIC banded into grades; for MIC: Aspergillus niger, read-out: MIC grade, A. niger
# Method: as §1, §2, §6, §7, §5
# Aspergillus terreus AT49 [11] = assay: MIC, RPMI medium; conditions: for MIC: Aspergillus terreus, AT49, MIC banded into grades, read-out: MIC grade, A. terreus 49
# Method: as §1, §2, §6, §7, §5
# Aspergillus terreus AT4 [12] = assay: MIC, RPMI medium; conditions: for MIC: Aspergillus terreus, AT4, MIC banded into grades, read-out: MIC grade, A. terreus
# Method: as §1, §2, §6, §7, §5
Structure (SMILES),MIC (Aspergillus flavus [1]),MIC [2],MIC [3],MIC (Aspergillus niger [4]),MIC (Aspergillus terreus AT49 [5]),MIC (Aspergillus terreus AT4 [6]),MIC (Aspergillus flavus [7]),MIC [8],MIC [9],MIC (Aspergillus niger [10]),MIC (Aspergillus terreus AT49 [11]),MIC (Aspergillus terreus AT4 [12]),also measured
"COCCn1c(C)cc(-c2ccccc2)c1C(=O)C(=O)Nc1cccc2cnccc12 [Example 30, N-Isoquinolin-5-yl-2-[1-(2-methoxy-ethyl)-5-methyl-3-phenyl-1H-pyrrol-2-yl]-2-oxo-acetamide]",1 to 10 µg/mL,1 to 10 µg/mL,1 to 10 µg/mL,> 10 µg/mL,1 to 10 µg/mL,1 to 10 µg/mL,> 10 µg/mL,> 10 µg/mL,> 10 µg/mL,> 10 µg/mL,> 10 µg/mL,> 10 µg/mL,
"Cc1cc(C)nc(N2CCN(c3ccc(NC(=O)C(=O)c4c(C(C)C)cc(C)n4C)cc3)CC2)c1 [Example 14, N-{4-[4-(4,6-Dimethyl-pyridin-2-yl)-piperazin-1-yl]-phenyl}-2-(3-isopropyl-1,5-dimethyl-1H-pyrrol-2-yl)-2-oxo-acetamide]",< 1 µg/mL,< 1 µg/mL,< 1 µg/mL,< 1 µg/mL,< 1 µg/mL,< 1 µg/mL,< 1 µg/mL,< 1 µg/mL,< 1 µg/mL,< 1 µg/mL,< 1 µg/mL,< 1 µg/mL,
"Cc1cc(-c2ccccc2)c(C(=O)C(=O)Nc2ccc(-c3ncco3)cc2F)n1C [Example 100, 2-(1,5-Dimethyl-3-phenyl-1H-pyrrol-2-yl)-N-[2-fluoro-4-oxazol-2-yl-phenyl)-2-oxo-acetamide]",< 1 µg/mL,1 to 10 µg/mL,< 1 µg/mL,< 1 µg/mL,< 1 µg/mL,< 1 µg/mL,< 1 µg/mL,1 to 10 µg/mL,< 1 µg/mL,< 1 µg/mL,< 1 µg/mL,< 1 µg/mL,
"COC(=O)Cn1cccc1C(=O)C(=O)Nc1ccc(N2CCN(c3cc(C)cc(C)n3)CC2)cc1 [Example 61, (2-{4-[4-(4,6-Dimethyl-pyridin-2-yl)-piperazin-1-yl]-phenylaminooxalyl}-pyrrol-1-yl)-acetic acid methyl ester]",,,,,,,,,,,,,"MIC grade, A. flavus (Aspergillus flavus [1]): 1 (a grade of 1 represents an MIC of greater than 10 mg/L); MIC grade, A. fumigatus 210 [2]: 2 (A grade of 2 represents an MIC of from 1 to 10 mg/L); MIC grade, A. fumigatus [3]: 1 (a grade of 1 represents an MIC of greater than 10 mg/L); MIC grade, A. niger (Aspergillus niger [4]): 1 (a grade of 1 represents an MIC of greater than 10 mg/L); MIC grade, A. terreus 49 (Aspergillus terreus AT49 [5]): 1 (a grade of 1 represents an MIC of greater than 10 mg/L); MIC grade, A. terreus (Aspergillus terreus AT4 [6]): 1 (a grade of 1 represents an MIC of greater than 10 mg/L); MIC grade, A. flavus (Aspergillus flavus [7]): 1 (a grade of 1 represents an MIC of greater than 10 mg/L); MIC grade, A. fumigatus 210 ([8]; MIC banded into grades): 2 (A grade of 2 represents an MIC of from 1 to 10 mg/L); MIC grade, A. fumigatus ([9]; MIC banded into grades): 1 (a grade of 1 represents an MIC of greater than 10 mg/L); MIC grade, A. niger (Aspergillus niger [10]): 1 (a grade of 1 represents an MIC of greater than 10 mg/L); MIC grade, A. terreus 49 (Aspergillus terreus AT49 [11]; MIC banded into grades): 1 (a grade of 1 represents an MIC of greater than 10 mg/L); MIC grade, A. terreus (Aspergillus terreus AT4 [12]; MIC banded into grades): 1 (a grade of 1 represents an MIC of greater than 10 mg/L)"
"Cc1cc(C)nc(N2CCN(c3ccc(NC(=O)C(=O)c4[nH]c(C)cc4-c4ccccc4)cc3)CC2)c1 [Example 50, N-{4-[4-(4,6-Dimethyl-pyridin-2-yl)-piperazin-1-yl]-phenyl}-2-(5-methyl-3-phenyl-1H-pyrrol-2-yl)-2-oxo-acetamide]",< 1 µg/mL,< 1 µg/mL,< 1 µg/mL,< 1 µg/mL,< 1 µg/mL,< 1 µg/mL,< 1 µg/mL,< 1 µg/mL,< 1 µg/mL,< 1 µg/mL,< 1 µg/mL,< 1 µg/mL,

# Further lines, with some results ahead:
MIC (Aspergillus flavus [1]),MIC [2],MIC [3],MIC (Aspergillus niger [4]),MIC (Aspergillus terreus AT49 [5]),MIC (Aspergillus terreus AT4 [6]),MIC (Aspergillus flavus [7]),MIC [8],MIC [9],MIC (Aspergillus niger [10]),MIC (Aspergillus terreus AT49 [11]),MIC (Aspergillus terreus AT4 [12]),Structure (SMILES),also measured
< 1 µg/mL,< 1 µg/mL,< 1 µg/mL,< 1 µg/mL,< 1 µg/mL,< 1 µg/mL,< 1 µg/mL,< 1 µg/mL,< 1 µg/mL,< 1 µg/mL,< 1 µg/mL,< 1 µg/mL,"CCCn1c(C)cc(-c2ccccc2)c1C(=O)C(=O)Nc1ccc(N2CCN(c3cc(C)cc(C)n3)CC2)cc1 [Example 35, N-{4-[4-(4,6-Dimethyl-pyridin-2-yl)-piperazin-1-yl]-phenyl}-2-(5-methyl-3-phenyl-1-propyl-1H-pyrrol-2-yl)-2-oxo-acetamide]",
< 1 µg/mL,1 to 10 µg/mL,1 to 10 µg/mL,> 10 µg/mL,1 to 10 µg/mL,1 to 10 µg/mL,1 to 10 µg/mL,> 10 µg/mL,> 10 µg/mL,> 10 µg/mL,> 10 µg/mL,1 to 10 µg/mL,"Cc1cc(-c2ccccc2)c(C(=O)C(=O)Nc2cccc3ccncc23)n1C [Example 43, 2-(1,5-Dimethyl-3-phenyl-1H-pyrrol-2-yl)-N-isoquinolin-8-yl-2-oxo-acetamide]",
1 to 10 µg/mL,< 1 µg/mL,< 1 µg/mL,< 1 µg/mL,< 1 µg/mL,1 to 10 µg/mL,> 10 µg/mL,1 to 10 µg/mL,1 to 10 µg/mL,1 to 10 µg/mL,1 to 10 µg/mL,1 to 10 µg/mL,"CCCOCn1c(C)cc(-c2ccccc2)c1C(=O)C(=O)Nc1ccc(N2CCN(c3cc(C)cc(C)n3)CC2)cc1 [Example 139, N-{4-[4-(4,6-Dimethyl-pyridin-2-yl)-piperazin-1-yl]-phenyl}-2-(5-methyl-3-phenyl-1-propoxymethyl-1H-pyrrol-2-yl)-2-oxo-acetamide]",
< 1 µg/mL,< 1 µg/mL,< 1 µg/mL,< 1 µg/mL,< 1 µg/mL,< 1 µg/mL,< 1 µg/mL,< 1 µg/mL,< 1 µg/mL,< 1 µg/mL,< 1 µg/mL,< 1 µg/mL,"Cc1cc(-c2ccccc2)c(C(=O)C(=O)Nc2ccc(N3CCOCC3)cc2)n1C [Example 154, 2-(1,5-Dimethyl-3-phenyl-1H-pyrrol-2-yl)-N-(4-morpholin-4-yl-phenyl)-2-oxo-acetamide]",
